Measurements published in PubChem BioAssay AID1259407 (Chemical Carcinogenesis Research Information System (CCRIS), 2018).
Active and inactive are the calls of the source. No rule for the calls is given here.

Test system: CCRIS mutagenicity, Ames/micronucleus/aberration tests
Experiment: CCRIS mutagenicity studies
[1] = Test System: AMES SALMONELLA TYPHIMURIUM, Strain/Indicator: TA97, Metabolic Activation: HAMSTER, LIVER, S-9, AROCLOR 1254 (10%), Method: PREINCUBATION
[2] = Test System: AMES SALMONELLA TYPHIMURIUM, Strain/Indicator: TA97, Metabolic Activation: HAMSTER, LIVER, S-9, AROCLOR 1254 (30%), Method: PREINCUBATION
[3] = Test System: AMES SALMONELLA TYPHIMURIUM, Strain/Indicator: TA97, Metabolic Activation: NONE, Method: PREINCUBATION
[4] = Test System: AMES SALMONELLA TYPHIMURIUM, Strain/Indicator: TA98, Metabolic Activation: HAMSTER, LIVER, S-9, AROCLOR 1254 (10%), Method: PREINCUBATION
[5] = Test System: AMES SALMONELLA TYPHIMURIUM, Strain/Indicator: TA98, Metabolic Activation: HAMSTER, LIVER, S-9, AROCLOR 1254 (30%), Method: PREINCUBATION
[6] = Test System: AMES SALMONELLA TYPHIMURIUM, Strain/Indicator: TA98, Metabolic Activation: NONE, Method: PREINCUBATION
[7] = Test System: AMES SALMONELLA TYPHIMURIUM, Strain/Indicator: TA100, Metabolic Activation: HAMSTER, LIVER, S-9, AROCLOR 1254 (10%), Method: PREINCUBATION
[8] = Test System: AMES SALMONELLA TYPHIMURIUM, Strain/Indicator: TA100, Metabolic Activation: HAMSTER, LIVER, S-9, AROCLOR 1254 (30%), Method: PREINCUBATION
[9] = Test System: AMES SALMONELLA TYPHIMURIUM, Strain/Indicator: TA100, Metabolic Activation: NONE, Method: PREINCUBATION
[10] = Test System: AMES SALMONELLA TYPHIMURIUM, Strain/Indicator: TA1535, Metabolic Activation: HAMSTER, LIVER, S-9, AROCLOR 1254 (10%), Method: PREINCUBATION
[11] = Test System: AMES SALMONELLA TYPHIMURIUM, Strain/Indicator: TA1535, Metabolic Activation: HAMSTER, LIVER, S-9, AROCLOR 1254 (30%), Method: PREINCUBATION
[12] = Test System: AMES SALMONELLA TYPHIMURIUM, Strain/Indicator: TA1535, Metabolic Activation: NONE, Method: PREINCUBATION
[13] = Test System: AMES SALMONELLA TYPHIMURIUM, Strain/Indicator: TA1535, Metabolic Activation: RAT, LIVER, S-9, AROCLOR 1254 (10%), Method: PREINCUBATION
[14] = Test System: AMES SALMONELLA TYPHIMURIUM, Strain/Indicator: TA1535, Metabolic Activation: RAT, LIVER, S-9, AROCLOR 1254 (30%), Method: PREINCUBATION
[15] = Test System: AMES SALMONELLA TYPHIMURIUM, Strain/Indicator: TA1537, Metabolic Activation: HAMSTER, LIVER, S-9, AROCLOR 1254 (30%), Method: PREINCUBATION
[16] = Test System: AMES SALMONELLA TYPHIMURIUM, Strain/Indicator: TA1537, Metabolic Activation: NONE, Method: PREINCUBATION
[17] = Test System: AMES SALMONELLA TYPHIMURIUM, Strain/Indicator: TA1537, Metabolic Activation: RAT, LIVER, S-9, AROCLOR 1254 (30%), Method: PREINCUBATION
[18] = Test System: AMES SALMONELLA TYPHIMURIUM, Strain/Indicator: TA100, Metabolic Activation: RAT, LIVER, S-9, AROCLOR 1254, Method: STANDARD PLATE
[19] = Test System: AMES SALMONELLA TYPHIMURIUM, Strain/Indicator: TA98, Metabolic Activation: RAT, LIVER, S-9, AROCLOR 1254, Method: STANDARD PLATE

Q: What does the source list for O=C(O)c1cccc(Cl)c1?
A: mutagenic call [1]: inactive; negative; mutagenic call [2]: inactive; negative; mutagenic call [3]: inactive; negative; mutagenic call (Test System: AMES SALMONELLA TYPHIMURIUM, Strain/Indicator: TA97, Metabolic Activation: RAT, LIVER, S-9, AROCLOR 1254 (10%), Method: PREINCUBATION): inactive; negative; mutagenic call (Test System: AMES SALMONELLA TYPHIMURIUM, Strain/Indicator: TA97, Metabolic Activation: RAT, LIVER, S-9, AROCLOR 1254 (30%), Method: PREINCUBATION): inactive; negative; mutagenic call [4]: inactive; negative; mutagenic call [5]: inactive; negative; mutagenic call [6]: inactive; negative; mutagenic call (Test System: AMES SALMONELLA TYPHIMURIUM, Strain/Indicator: TA98, Metabolic Activation: RAT LIVER S-9, PCB, Method: PREINCUBATION): inactive; negative; mutagenic call (Test System: AMES SALMONELLA TYPHIMURIUM, Strain/Indicator: TA98, Metabolic Activation: RAT, LIVER, S-9, AROCLOR 1254 (10%), Method: PREINCUBATION): inactive; negative; mutagenic call (Test System: AMES SALMONELLA TYPHIMURIUM, Strain/Indicator: TA98, Metabolic Activation: RAT, LIVER, S-9, AROCLOR 1254 (30%), Method: PREINCUBATION): inactive; negative; mutagenic call [7]: inactive; negative; mutagenic call [8]: inactive; negative; mutagenic call [9]: inactive; negative; mutagenic call (Test System: AMES SALMONELLA TYPHIMURIUM, Strain/Indicator: TA100, Metabolic Activation: RAT LIVER S-9, PCB, Method: PREINCUBATION): inactive; negative; mutagenic call (Test System: AMES SALMONELLA TYPHIMURIUM, Strain/Indicator: TA100, Metabolic Activation: RAT, LIVER, S-9, AROCLOR 1254 (10%), Method: PREINCUBATION): inactive; negative; mutagenic call (Test System: AMES SALMONELLA TYPHIMURIUM, Strain/Indicator: TA100, Metabolic Activation: RAT, LIVER, S-9, AROCLOR 1254 (30%), Method: PREINCUBATION): inactive; negative; mutagenic call (Test System: AMES SALMONELLA TYPHIMURIUM, Strain/Indicator: TA104, Metabolic Activation: NONE, Method: PREINCUBATION): inactive; negative; mutagenic call (Test System: AMES SALMONELLA TYPHIMURIUM, Strain/Indicator: TA104, Metabolic Activation: RAT LIVER S-9, PCB, Method: PREINCUBATION): inactive; negative; mutagenic call [10]: inactive; negative; mutagenic call [11]: inactive; negative; mutagenic call [12]: inactive; negative; mutagenic call [13]: inactive; negative; mutagenic call [14]: inactive; negative; mutagenic call [15]: inactive; negative; mutagenic call [16]: inactive; negative; mutagenic call [17]: inactive; negative; mutagenic call (Test System: E.COLI, Strain/Indicator: WP2 UVRA, Metabolic Activation: NONE, Method: PREINCUBATION): inactive; negative; mutagenic call (Test System: E.COLI, Strain/Indicator: WP2 UVRA, Metabolic Activation: RAT LIVER S-9, PCB, Method: PREINCUBATION): inactive; negative

Q: O[C@@H]1C2=c3c(cc4cccc5ccc(c3c54)[C@H]1O)-c1ccccc12 was tested. Which mutagenic call [18] did it give?
A: The mutagenic call was “inactive; negative”.

Q: What does the source list for Cc1cc2nc3cc(C)c(N)cc3[n+](-c3ccccc3)c2cc1N?
A: mutagenic call (Test System: AMES SALMONELLA TYPHIMURIUM, Strain/Indicator: TA98, Method: PREINCUBATION): active; positive; mutagenic call (Test System: AMES SALMONELLA TYPHIMURIUM, Strain/Indicator: TA100, Method: PREINCUBATION): active; positive

Q: With CCCCCCCCn1sccc1=O as the compound, how does the mutagenic call [1] read?
A: Its mutagenic call is “inactive; negative”.

Q: What about the mutagenic call [2] of the same compound?
A: The mutagenic call was “inactive; negative”.

Q: And the mutagenic call [3]?
A: The mutagenic call was “inactive; negative”.

Q: What about the mutagenic call (Test System: AMES SALMONELLA TYPHIMURIUM, Strain/Indicator: TA97, Metabolic Activation: RAT, LIVER, S-9, AROCLOR 1254 (10 OR 30%), Method: PREINCUBATION) of the same compound?
A: Its mutagenic call is “inactive; negative”.

Q: And the mutagenic call [4]?
A: The mutagenic call was “inactive; negative”.

Q: What about the mutagenic call [5] of the same compound?
A: Its mutagenic call is “inactive; negative”.

Q: And the mutagenic call [6]?
A: Its mutagenic call is “inactive; negative”.

Q: What about the mutagenic call (Test System: AMES SALMONELLA TYPHIMURIUM, Strain/Indicator: TA98, Metabolic Activation: RAT, LIVER, S-9, AROCLOR 1254 (10 OR 30%), Method: PREINCUBATION) of the same compound?
A: The mutagenic call was “inactive; negative”.

Q: What about the mutagenic call [7] of the same compound?
A: Its mutagenic call is “inactive; negative”.

Q: What about the mutagenic call [8] of the same compound?
A: Its mutagenic call is “inactive; negative”.

Q: And the mutagenic call [9]?
A: Its mutagenic call is “inactive; negative”.

Q: And the mutagenic call (Test System: AMES SALMONELLA TYPHIMURIUM, Strain/Indicator: TA100, Metabolic Activation: RAT, LIVER, S-9, AROCLOR 1254 (10 OR 30%), Method: PREINCUBATION)?
A: The mutagenic call was “inactive; negative”.

Q: And the mutagenic call [10]?
A: Its mutagenic call is “inactive; negative”.

Q: What about the mutagenic call [11] of the same compound?
A: The mutagenic call was “inactive; negative”.

Q: And the mutagenic call [12]?
A: Its mutagenic call is “inactive; negative”.

Q: And the mutagenic call [13]?
A: The mutagenic call was “inactive; negative”.

Q: And the mutagenic call [14]?
A: Its mutagenic call is “inactive; negative”.

Q: And the mutagenic call [15]?
A: The mutagenic call was “inactive; negative”.

Q: What about the mutagenic call [16] of the same compound?
A: Its mutagenic call is “inactive; negative”.

Q: And the mutagenic call [17]?
A: Its mutagenic call is “inactive; negative”.

Q: Which mutagenic call [19] does the source give for c1cc2ccc3cccc4ncc(c1)c2c34 here?
A: Its mutagenic call is “active; positive”.

Q: What about the mutagenic call [18] of the same compound?
A: Its mutagenic call is “active; positive”.

Q: What does the source list for CC(=O)OCc1c2ccccc2cc2ccccc12?
A: mutagenic call (Test System: AMES SALMONELLA TYPHIMURIUM, Strain/Indicator: TA98, Metabolic Activation: NONE, Method: STANDARD PLATE): active; positive; mutagenic call (Test System: AMES SALMONELLA TYPHIMURIUM, Strain/Indicator: TA100, Metabolic Activation: NONE, Method: STANDARD PLATE): active; positive

Q: How did the mutagenic call [19] turn out when CCc1cc(Cc2cc(C)c(N)c(CC)c2)cc(C)c1N was run?
A: The mutagenic call was “inactive; negative”.

Q: What about the mutagenic call [18] of the same compound?
A: Its mutagenic call is “inactive; negative”.
